Assay results: patent US9751885B2, “Cyclopropanamine compound and use thereof” (Takeda Pharmaceutical Company Limited, priority 2012, dated 2017)
Structures can show the parent of a compound that is named as a salt. Where two headings read alike, the source gives them in different places.

What was measured:
[1] = Evaluation of hippocampal distribution in mouse; assay type: in vivo; settings: male ICR mice, 10 mg/kg oral; for concentration at 0.5 h / Kp at 0.5 h: 0.5 hr after administration; for concentration at 1 h / Kp at 1 h: 1 hr after administration
Protocol: Evaluation of Hippocampal Distribution in Mouse
(§1) Male ICR mice (hereinafter mice) were acclimated for at least one week in a rearing facility. The mice were raised in a rearing room with controlled temperature and humidity under a 12:12 hour light-dark cycle, and allowed free ingestion of feed and water.
The compounds were suspended in 0.5% methylcellulose/0.02% citric acid/distilled water and orally administered. All compounds were administered to the mice at a dose of 10 mg/kg (body weight).
Blood samples were collected at 0.5 hr, or 1 hr, or 1.5 hr from compound administration, and the hippocampus was isolated simultaneously. The plasma concentration and hippocampus concentration of each test compound were measured by the LC/MS/MS method, the ratio (hippocampus/plasma concentration ratio) was calculated, and distribution into hippocampus was evaluated.

[2] = tested on: white blood cell number, red blood cell number, platelet number; assay: Evaluation of blood cell number in mouse; assay type: in vivo; settings: oral, Day 2 after administration
Protocol: Evaluation of Blood Cell Number in Mouse
as §1
The compounds were suspended in 0.5% methylcellulose/0.02% citric acid/distilled water and orally administered. All compounds were administered to the mice at a dose of 1 mg/kg, 10 mg/kg, 50 mg/kg or 100 mg/kg (body weight). On Day 2 after the administration of the compound, the whole blood was collected.
Using Sysmex XT-1800i (Sysmex Corporation), the white blood cell number, red blood cell number, and platelet number in the collected whole blood per unit volume were measured. The influence of each compound on each blood cell number was determined by comparing the number with the mean of each blood cell number of the mouse without administration of the compound (control group), and the numerical value of each blood cell number of a mouse with the administration of the compound is shown in percentage. percentage (%) of blood cell number of compound administration group as compared to control group=(mean blood cell number of compound administration group mean blood cell number of compound non-administration group)×100

[3] = hippocampus, read-out: hippocampus concentration (mean)
[4] = hippocampus/plasma, read-out: hippocampus/plasma concentration ratio (mean)
[5] = plasma, read-out: plasma concentration (mean)

Row | concentration at 0.5 h [1, 3] [ng/g] | Kp at 0.5 h [1, 4] | concentration at 0.5 h [1, 5] [ng/mL] | platelet number, percentage of compound administration group compared to control group, mean ([2]; 10 mg/kg) [%] | red blood cell number, percentage of compound administration group compared to control group, mean ([2]; 10 mg/kg) [%] | white blood cell number, percentage of compound administration group compared to control group, mean ([2]; 10 mg/kg) [%] | platelet number, percentage of compound administration group compared to control group, mean ([2]; 100 mg/kg) [%] | red blood cell number, percentage of compound administration group compared to control group, mean ([2]; 100 mg/kg) [%] | white blood cell number, percentage of compound administration group compared to control group, mean ([2]; 100 mg/kg) [%] | concentration at 1 h [1, 3] [ng/g] | Kp at 1 h [1, 4] | concentration at 1 h [1, 5] [ng/mL] | concentration at 1.5 h ([1]; hippocampus, 1.5 hr after administration, read-out: hippocampus concentration (mean)) [ng/g] | Kp at 1.5 h ([1]; hippocampus/plasma, 1.5 hr after administration, read-out: hippocampus/plasma concentration ratio (mean)) | concentration at 1.5 h ([1]; plasma, 1.5 hr after administration, read-out: plasma concentration (mean)) [ng/mL] | Compound
1 | – | – | – | 98.8 | 97.7 | 76.7 | 88.9 | 101.2 | 94.8 | 276 | 1.58 | 175 | – | – | – | O=C(NC1CC(F)(F)C1)c1cccc([C@@H]2C[C@H]2NC2CCC(F)(F)CC2)c1 (relative stereo) [Example 234, N-(3,3-difluorocyclobutyl)-3-(trans-2-((4,4-difluorocyclohexyl)amino)cyclopropyl)benzamide hydrochloride]
2 | – | – | – | 97.7 | 99.5 | 107.0 | 94.7 | 104.9 | 116.8 | 482 | 1.84 | 268 | – | – | – | O=C(NC1CCC(F)(F)CC1)c1cccc([C@@H]2C[C@H]2NCC2CC2)c1 (relative stereo) [Example 102, 3-(trans-2-((cyclopropylmethyl)amino)cyclopropyl)-N-(4,4-difluorocyclohexyl)benzamide hydrochloride]
3 | 207 | 0.24 | 889 | 98.1 | 92.9 | 99.4 | 91.0 | 98.8 | 104.8 | – | – | – | – | – | – | O=C(NC1CCOCC1)c1cccc([C@@H]2C[C@H]2NCC2CC2)c1 (relative stereo) [Example 100, 3-(trans-2-((cyclopropylmethyl)amino)cyclopropyl)-N-(tetrahydro-2H-pyran-4-yl)benzamide hydrochloride]
4 | 2390 | 1.69 | 1400 | 94.8 | 101.2 | 114.5 | 98.9 | 100.4 | 121.7 | – | – | – | – | – | – | Cc1nnc(NC(=O)c2cc([C@@H]3C[C@H]3NC3CCC(F)(F)CC3)ccc2F)s1 (relative stereo) [Example 223, 5-(trans-2-((4,4-difluorocyclohexyl)amino)cyclopropyl)-2-fluoro-N-(5-methyl-1,3,4-thiadiazol-2-yl)benzamide dihydrochloride]
5 | 546 | 0.52 | 1050 | 90.2 | 98.5 | 93.2 | 85.2 | 98.9 | 84.5 | – | – | – | – | – | – | O=C(NC1CCOCC1)c1cccc([C@@H]2C[C@H]2NC2CCC(F)(F)CC2)c1 (relative stereo) [Example 178, 3-(trans-2-((4,4-difluorocyclohexyl)amino)cyclopropyl)-N-(tetrahydro-2H-pyran-4-yl)benzamide hydrochloride]
6 | – | – | – | 114.7 | 97.8 | 81.6 | 110.8 | 104.0 | 80.9 | 437 | 0.47 | 920 | – | – | – | Cn1cc(NC(=O)c2cccc([C@@H]3C[C@H]3NC3CCC(F)(F)CC3)c2)cn1 (relative stereo) [Example 205, 3-(trans-2-((4,4-difluorocyclohexyl)amino)cyclopropyl)-N-(1-methyl-1H-pyrazol-4-yl)benzamide dihydrochloride]

Continued, compound first:

Row | Compound | concentration at 0.5 h [1, 3] [ng/g] | Kp at 0.5 h [1, 4] | concentration at 0.5 h [1, 5] [ng/mL] | platelet number, percentage of compound administration group compared to control group, mean ([2]; 10 mg/kg) [%] | red blood cell number, percentage of compound administration group compared to control group, mean ([2]; 10 mg/kg) [%] | white blood cell number, percentage of compound administration group compared to control group, mean ([2]; 10 mg/kg) [%] | platelet number, percentage of compound administration group compared to control group, mean ([2]; 100 mg/kg) [%] | red blood cell number, percentage of compound administration group compared to control group, mean ([2]; 100 mg/kg) [%] | white blood cell number, percentage of compound administration group compared to control group, mean ([2]; 100 mg/kg) [%] | concentration at 1 h [1, 3] [ng/g] | Kp at 1 h [1, 4] | concentration at 1 h [1, 5] [ng/mL] | concentration at 1.5 h ([1]; hippocampus, 1.5 hr after administration, read-out: hippocampus concentration (mean)) [ng/g] | Kp at 1.5 h ([1]; hippocampus/plasma, 1.5 hr after administration, read-out: hippocampus/plasma concentration ratio (mean)) | concentration at 1.5 h ([1]; plasma, 1.5 hr after administration, read-out: plasma concentration (mean)) [ng/mL]
7 | Cc1cc(NC(=O)c2cccc([C@@H]3C[C@H]3NC3CCOCC3)c2)on1 (relative stereo) [Example 235, N-(3-methyl-1,2-oxazol-5-yl)-3-(trans-2-(tetrahydro-2H-pyran-4-ylamino)cyclopropyl)benzamide hydrochloride] | 216 | 1.04 | 204 | 99.1 | 101.1 | 75.7 | 96.6 | 97.8 | 93.0 | – | – | – | – | – | –
8 | Cc1cc(NC(=O)c2cccc([C@@H]3C[C@H]3NCC3CC3)c2)n(C)n1 (relative stereo) [Example 107, 3-(trans-2-((cyclopropylmethyl)amino)cyclopropyl)-N-(1,3-dimethyl-1H-pyrazol-5-yl)benzamide dihydrochloride] | 242 | 0.09 | 2560 | 95.4 | 98.4 | 86.6 | 91.1 | 102.2 | 132.7 | – | – | – | – | – | –
9 | Cc1nnc(NC(=O)c2cc([C@@H]3C[C@H]3NC3CCC3)ccc2F)s1 (relative stereo) [Example 183, 5-(trans-2-(cyclobutylamino)cyclopropyl)-2-fluoro-N-(5-methyl-1,3,4-thiadiazol-2-yl)benzamide dihydrochloride] | – | – | – | 96.4 | 98.5 | 88.1 | 86.6 | 97.5 | 114.9 | – | – | – | 884 | 1.35 | 651
10 | O=C(NC1CCOCC1)c1cc([C@@H]2C[C@H]2NCC2CC2)ccc1F (relative stereo) [Example 111, 5-(trans-2-((cyclopropylmethyl)amino)cyclopropyl)-2-fluoro-N-(tetrahydro-2H-pyran-4-yl)benzamide hydrochloride] | 1300 | 1.59 | 823 | 101.2 | 98.7 | 136.9 | 98.4 | 99.1 | 97.9 | – | – | – | – | – | –
